Results on 31 compounds are retold here after ChEMBL document CHEMBL3877302, “Design and Synthesis of a New Series of 4-Heteroarylamino-1'-azaspiro[oxazole-5,3'-bicyclo[2.2.2]octanes as α7 Nicotinic Receptor Agonists. 1. Development of Pharmacophore and Early Structure-Activity Relationship” (J Med Chem, 2016).

For orientation: EC50 means the midpoint of the concentration-response curve. Low readings indicate higher potency in that assay, high ones lower potency in that assay. What is called IC50 is the point on the concentration scale where inhibition reaches its midpoint. As a reminder, the inhibition is the relative decrease from the control value, in per cent.

Molecules are shown by their SMILES. Where only a bound is given, the exact number is not on record here.

The target in series [1] is T1, Neuronal acetylcholine receptor subunit alpha-7 (Rattus norvegicus, UniProt Q05941). The experiment in a line: Agonist activity at rat alpha7 nAChR expressed in HEK293 cells co-expressing human RIC3 measured for 2 mins by FLIPR assay. The format is cell-based.
For series [2], the target named is T2, 5-hydroxytryptamine receptor 3A (Homo sapiens, UniProt P46098).
T2 sequence (P46098 whole entry): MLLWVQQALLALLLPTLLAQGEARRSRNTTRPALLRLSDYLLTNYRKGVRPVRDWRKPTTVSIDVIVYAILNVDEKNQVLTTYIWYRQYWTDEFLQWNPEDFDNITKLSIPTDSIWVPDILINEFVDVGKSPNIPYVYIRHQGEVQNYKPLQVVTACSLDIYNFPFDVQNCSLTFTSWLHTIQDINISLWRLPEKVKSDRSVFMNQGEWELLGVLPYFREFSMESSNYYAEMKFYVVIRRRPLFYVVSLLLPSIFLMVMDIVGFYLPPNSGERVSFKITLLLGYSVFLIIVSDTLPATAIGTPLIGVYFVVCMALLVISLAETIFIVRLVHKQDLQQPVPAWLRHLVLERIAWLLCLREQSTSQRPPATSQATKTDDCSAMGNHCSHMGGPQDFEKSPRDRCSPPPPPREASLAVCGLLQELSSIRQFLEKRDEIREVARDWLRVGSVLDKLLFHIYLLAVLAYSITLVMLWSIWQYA
The experiment in a line: Antagonist activity at human 5-HT3A expressed in HEK293 cells assessed as reduction in acetylcholine-induced activity preincubated for 30 mins followed by addition of acetylcholine measured for 2 mins by Fluo-4AM dye based FLIPR assay. The format is cell-based.

Series [3] can be described thus: Selectivity ratio of IC50 for human 5-HT3A expressed in HEK293 cells to EC50 for rat alpha7 nAChR expressed in HEK293 cells co-expressing human RIC3. Type of series: ADME, cell-based.
The target in series [4] is T1, Neuronal acetylcholine receptor subunit alpha-7. The experiment in a line: Partial agonist activity at rat alpha7 nAChR expressed in HEK293 cells co-expressing human RIC3 at holding potential of -90 mV by whole-cell voltage clamp technique. Type of series: cell-based.
The next series concerns the target T3, 5-HT3A (Homo sapiens, UniProt P46098).
T3 sequence (P46098 whole entry): T2 sequence (P46098 whole entry)
The experiment in a line: Antagonist activity at 5-HT3A (unknown origin) at 10 uM.

T1 sequence (Q05941 whole entry): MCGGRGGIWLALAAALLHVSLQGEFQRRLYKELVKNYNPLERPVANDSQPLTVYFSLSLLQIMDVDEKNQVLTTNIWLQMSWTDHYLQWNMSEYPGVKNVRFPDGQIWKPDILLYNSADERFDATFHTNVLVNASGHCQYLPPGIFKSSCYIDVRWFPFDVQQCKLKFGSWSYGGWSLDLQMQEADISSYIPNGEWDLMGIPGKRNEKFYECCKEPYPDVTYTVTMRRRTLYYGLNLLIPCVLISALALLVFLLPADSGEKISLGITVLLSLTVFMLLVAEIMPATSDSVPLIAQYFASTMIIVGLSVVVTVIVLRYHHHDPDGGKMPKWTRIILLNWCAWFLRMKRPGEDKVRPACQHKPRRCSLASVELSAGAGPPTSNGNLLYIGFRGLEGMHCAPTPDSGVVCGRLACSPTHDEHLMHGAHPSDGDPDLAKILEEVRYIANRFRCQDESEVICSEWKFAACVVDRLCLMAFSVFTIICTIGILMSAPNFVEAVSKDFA

`c1ccc2sc(NC3=NC[C@]4(CN5CCC4CC5)O3)nc2c1` displayed an EC50 in series [1] of 1300 nM. In addition, in series [2], the IC50 came out at 7300 nM. Further, in series [3], the “Ratio IC50/EC50” value is given as 6.

With `c1cncc(/N=C2\NCC3(CN4CCC3CC4)O2)c1` (racemic), it took 21000 nM to reach a half-maximal effect in series [1] (EC50). The IC50 in series [2] worked out at 2300 nM. In series [3], the “Ratio IC50/EC50” value stood at 0.1.

For `Cc1ccc2nc(NC3=NCC4(CN5CCC4CC5)O3)sc2c1` (stereo unspecified), the EC50 in series [1] was 120 nM. In series [2], the concentration for half-maximal inhibition (IC50) was determined as 3800 nM. For the same compound, the “Ratio IC50/EC50” value in series [3] worked out at 32.

In the case of `COc1ccc2nc(NC3=NCC4(CN5CCC4CC5)O3)sc2c1` (stereo unspecified), the EC50 in series [4] was 600 nM; in series [1], 120 nM. Moreover, the IC50 in series [2] was found to be 19000 nM. Moreover, the “Ratio IC50/EC50” value in series [3] is recorded as 153.

Take `COc1ccc2nc(NC3=NC4(CO3)CN3CCC4CC3)sc2c1` (stereo unspecified): the EC50 in series [1] turned out to be 7800 nM. The IC50 in series [2] worked out at 47000 nM. For the same compound, in series [3], the “Ratio IC50/EC50” value is given as 6.

With `COc1cccc2sc(NC3=NCC4(CN5CCC4CC5)O3)nc12` (stereo unspecified), in series [1], the midpoint of the response, the EC50, lay at 830 nM. In addition, in series [2], the IC50 worked out at 13 nM. The “Ratio IC50/EC50” value in series [3] was 0.02.

With `c1ccc2sc(NC3=NCC4(CN5CCC4C5)O3)nc2c1` (racemic), the midpoint of the response in series [1], the EC50, lay at 260 nM. Further, the IC50 in series [2] was 35 nM. For the same compound, the “Ratio IC50/EC50” value in series [3] amounted to 0.06.

Regarding `c1nc2cc(NC3=NCC4(CN5CCC4CC5)O3)ccc2s1` (racemic), in series [1], the midpoint of the response, the EC50, lay at 3100 nM. Further, in series [2], the concentration for half-maximal inhibition (IC50) came to 41000 nM. Also, the “Ratio IC50/EC50” value in series [3] was determined as 13.

As to `c1ccc(-c2csc(NC3=NCC4(CN5CCC4CC5)O3)n2)cc1` (racemic), in series [1], the half-maximal effective concentration (EC50) stood at 450 nM. Besides, the IC50 in series [2] was 11 nM. Also, in series [3], the “Ratio IC50/EC50” value is reported as 0.02.

In series [1], `COc1ccc2nc(/N=C3/OC4(CN5CCC4CC5)CN3C)sc2c1` (stereo unspecified) yielded an EC50 greater than 100000 nM. Also, the 50% inhibitory concentration (IC50) in series [2] is greater than 100000 nM.

As for `c1cc(NC2=NCC3(CN4CCC3CC4)O2)ccn1` (racemic), in series [1], the EC50 came to 11000 nM. Further, the concentration for half-maximal inhibition (IC50) in series [2] was 58000 nM. Besides, the “Ratio IC50/EC50” value in series [3] is 5.

Regarding `c1ccc(-c2cnc(NC3=NCC4(CN5CCC4CC5)O3)s2)cc1` (racemic), a half-maximal effect in series [1] (EC50) was put at 400 nM. Besides, the IC50 in series [2] is 20000 nM. Also, in series [3], the Ratio IC50/EC50 lay in the range of 51 to 750.

Compound `Oc1ccc2nc(NC3=NCC4(CN5CCC4CC5)O3)sc2c1` (stereo unspecified) registered an EC50 in series [1] of 980 nM. The 50% inhibitory concentration (IC50) in series [2] stood at 11000 nM. In addition, the “Ratio IC50/EC50” value in series [3] amounted to 11.

With `c1csc(NC2=NCC3(CN4CCC3CC4)O2)n1` (racemic), the results for the EC50 in series [4] and in series [1] were 1300 nM and 200 nM, respectively. The concentration for half-maximal inhibition (IC50) in series [2] is 25 nM. Further, the “Ratio IC50/EC50” value in series [3] came out at 0.1.

Consider `c1ccc2sc(NC3=NC[C@@]4(CN5CCC4CC5)O3)nc2c1`, for which the EC50 in series [1] was found to be 21 nM. Also, the IC50 in series [2] was found to be 21 nM. Further, in series [3], the “Ratio IC50/EC50” value is 1.

Turning to `COc1cc2nc(NC3=NCC4(CN5CCC4CC5)O3)sc2cc1OC` (stereo unspecified), a half-maximal response in series [1] (EC50) required 11000 nM. The concentration for half-maximal inhibition (IC50) in series [2] amounted to 27000 nM. Besides, the “Ratio IC50/EC50” value in series [3] is on record as 3.

In series [1], `COc1ccc2nc(NC3=NCCC4(CN5CCC4CC5)O3)sc2c1` (stereo unspecified) came in with a concentration giving a half-maximal response (EC50) of 3700 nM. Also, in series [2], the concentration for half-maximal inhibition (IC50) came to 64000 nM. Also, the “Ratio IC50/EC50” value in series [3] worked out at 17.

On to `COc1ccc2sc(NC3=NCC4(CN5CCC4CC5)O3)nc2c1` (stereo unspecified), for which a half-maximal response in series [1] (EC50) required 1100 nM. The half-inhibitory concentration (IC50) in series [2] worked out at 19 nM. In addition, the “Ratio IC50/EC50” value in series [3] came out at 0.02.

In turn, `c1ccc2nc(NC3=NC[C@@]4(CN5CCC4CC5)O3)ccc2c1` came in with an EC50 in series [1] of 26 nM. Moreover, in series [2], the IC50 stood at 8 nM. Moreover, in series [3], the “Ratio IC50/EC50” value worked out at 0.3.

With `COc1ccc2nc(NC3=NC[C@]4(CN5CCC4CC5)O3)sc2c1`, in series [1], it took 1900 nM to reach a half-maximal effect (EC50). Further, in series [2], the IC50 is greater than 97000 nM. The “Ratio IC50/EC50” value in series [3] is 85.

Regarding `c1ccc2sc(NC3=NCC4(CN5CCC4CC5)O3)nc2c1` (racemic), the values for the EC50 in series [4] and in series [1] were 500 nM and 20 to 21 nM, respectively. In series [2], the IC50 lay within 21 to 36 nM. Further, in series [3], the Ratio IC50/EC50 lay within 1 to 1.8.

The compound `O=C1NC[C@@]2(CN3CCC2CC3)O1` gave an inhibition at 10 µM against 5-HT3A of 2.5%.

Turning to `c1ccc(-c2ccc(NC3=NC[C@@]4(CN5CCC4CC5)O3)nc2)cc1`, the midpoint of the response in series [1], the EC50, lay at 750 nM. Further, the concentration for half-maximal inhibition (IC50) in series [2] was 22000 nM. For the same compound, in series [3], the “Ratio IC50/EC50” value is on record as 30.

With `c1ccc2c(NC3=NC[C@@]4(CN5CCC4CC5)O3)nccc2c1`, a half-maximal response in series [1] (EC50) required 210 nM.

As to `CCOc1ccc2nc(NC3=NCC4(CN5CCC4CC5)O3)sc2c1` (stereo unspecified), the concentration giving a half-maximal response (EC50) in series [1] turned out to be 320 nM. Further, the IC50 in series [2] worked out at 14000 nM. Further, in series [3], the “Ratio IC50/EC50” value turned out to be 42.

Compound `Clc1ccc2nc(NC3=NCC4(CN5CCC4CC5)O3)sc2c1` (stereo unspecified) came in with an EC50 in series [1] of 150 nM. In addition, the concentration for half-maximal inhibition (IC50) in series [2] stood at 8100 nM. Moreover, the “Ratio IC50/EC50” value in series [3] amounted to 53.

As for `c1ccc2sc(NC3=NCC4(CN5CCC[C@@H]4C5)O3)nc2c1` (mixture of isomers), a half-maximal response in series [1] (EC50) required 290 nM. Moreover, the concentration for half-maximal inhibition (IC50) in series [2] worked out at 950 nM. In addition, the “Ratio IC50/EC50” value in series [3] was 3.

With `c1ccc(-c2ccnc(NC3=NC[C@@]4(CN5CCC4CC5)O3)c2)cc1`, the IC50 in series [2] worked out at 85 nM. Also, in series [3], the Ratio IC50/EC50 fell in the range of 9 to 9.6.

For the compound `c1ccc(NC2=NCC3(CN4CCC3CC4)O2)cc1` (racemic), in series [1], the EC50 turned out to be 5400 nM. Further, the concentration for half-maximal inhibition (IC50) in series [2] is 230 nM. Further, the “Ratio IC50/EC50” value in series [3] is 0.04.

Consider `c1ccc2sc(NC3=NC[C@@]4(CN5CC[C@@H]4C5)O3)nc2c1`, for which the values for the EC50 in series [4] and in series [1] were 280 nM and 22 nM, respectively. In series [2], the half-maximal inhibitory concentration (IC50) stood at 480 nM. Also, the “Ratio IC50/EC50” value in series [3] came out at 22.

As for `c1ccc2sc(NC3=NCC4(CN5CCCC4C5)O3)nc2c1` (racemic), the EC50 in series [1] was found to be 700 nM. For the same compound, the IC50 in series [2] is 7 nM. Further, in series [3], the “Ratio IC50/EC50” value was less than 0.01.
